ChEMBL document CHEMBL1147155, “1,4-Dihydroindeno[1,2-c]pyrazoles with acetylenic side chains as novel and potent multitargeted receptor tyrosine kinase inhibitors with low affinity for the hERG ion channel” (J Med Chem, 2007)

Tests used:
Assay type in all cases: ADME, organism-based
[1] = Half life in CD1 mouse at 3 mg/kg, iv; parameters: dose 3 mg/kg, route intravenous; details: in vivo
[2] = Clearance in CD1 mouse at 3 mg/kg, iv; parameters: dose 3 mg/kg, route intravenous; details: in vivo
[3] = AUC in CD1 mouse at 10 mg/kg, po; parameters: dose 10 mg/kg, route oral; details: plasma
[4] = Bioavailability in CD1 mouse at 10 mg/kg, po; details: in vivo

Structure (SMILES): C(#Cc1cc(-c2n[nH]c3c2Cc2cc(Cn4cncn4)ccc2-3)cs1)COc1ccccc1
- half-life [1]: 3 h
- clearance [2]: 41.7 mL/min/kg

Structure (SMILES): CN1CCN(Cc2ccc3c(c2)Cc2c(-c4csc(C#CCNC(=O)c5ccccc5)c4)n[nH]c2-3)CC1
- AUC [3]: 3500 ng·h/mL
- bioavailability [4]: 17%

Structure (SMILES): CN1CCN(Cc2ccc3c(c2)Cc2c-3n[nH]c2-c2csc(C#CCNC(=O)Nc3ccccc3)c2)CC1
- bioavailability [4]: 0%

Structure (SMILES): CN1CCN(Cc2ccc3c(c2)Cc2c-3n[nH]c2-c2csc(C#CCOc3ccccc3)c2)CC1
- half-life [1]: 5.5 h
- bioavailability [4]: 75%

Structure (SMILES): COCCOCC#Cc1cc(-c2n[nH]c3c2Cc2cc(Cn4cncn4)ccc2-3)cs1
- half-life [1]: 0.3 h
- bioavailability [4]: 22%
- clearance [2]: 56.7 mL/min/kg
